According to patent US20050020553A1, “Prevention of miscarriage with immunomodulating non-endogenous gestagen compounds” (Solvay Pharmaceuticals GmbH, priority 2001, published 2005):

Experiments:
[1] = molecular target: T1, human progesterone receptor (Homo sapiens, UniProt P06401); conditions: cited from earlier work
T1 sequence (P06401 1-933): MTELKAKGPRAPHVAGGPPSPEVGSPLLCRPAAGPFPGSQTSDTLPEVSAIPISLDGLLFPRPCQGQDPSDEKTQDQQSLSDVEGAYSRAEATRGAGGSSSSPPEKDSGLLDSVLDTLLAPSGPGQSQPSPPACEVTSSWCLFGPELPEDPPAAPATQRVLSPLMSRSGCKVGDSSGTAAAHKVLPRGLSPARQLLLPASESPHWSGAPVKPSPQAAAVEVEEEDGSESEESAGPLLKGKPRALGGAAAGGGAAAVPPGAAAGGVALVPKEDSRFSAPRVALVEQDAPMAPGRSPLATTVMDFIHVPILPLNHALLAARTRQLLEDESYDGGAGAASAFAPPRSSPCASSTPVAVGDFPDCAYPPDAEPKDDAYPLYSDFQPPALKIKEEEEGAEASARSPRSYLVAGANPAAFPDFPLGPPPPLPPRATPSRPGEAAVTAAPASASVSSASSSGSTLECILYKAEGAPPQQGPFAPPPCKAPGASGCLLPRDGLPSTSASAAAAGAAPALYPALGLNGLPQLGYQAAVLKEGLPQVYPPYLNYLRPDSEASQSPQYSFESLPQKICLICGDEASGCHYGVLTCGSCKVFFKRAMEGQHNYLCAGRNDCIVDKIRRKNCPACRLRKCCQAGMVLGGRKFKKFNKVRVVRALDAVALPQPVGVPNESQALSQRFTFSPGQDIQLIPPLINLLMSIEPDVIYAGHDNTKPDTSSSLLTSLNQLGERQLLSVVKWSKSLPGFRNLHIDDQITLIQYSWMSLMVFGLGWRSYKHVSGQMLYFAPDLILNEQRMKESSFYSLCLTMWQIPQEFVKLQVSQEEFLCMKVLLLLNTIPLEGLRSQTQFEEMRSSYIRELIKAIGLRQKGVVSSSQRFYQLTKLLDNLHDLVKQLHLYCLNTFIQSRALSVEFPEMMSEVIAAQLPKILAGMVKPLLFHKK

[2] = tested on: pregnant mice; assay: Murine stress-induced (ultrasound) abortion model; assay type: in vivo
From the text: The results of the pharmacological test method given above can also be confirmed in an in vivo test model involving pregnant mice. […] Pregnant mice were exposed to ultrasound on day 5 of gestation. This stress increased the abortion rate of these mice from around 12% to 44%. Treatment with dydrogesterone reduced the abortion in a dose-related manner to as low as 5%.

[3] = in vivo; cited from earlier work
[4] = tested on: peripheral blood mononuclear cells (=PBMC); assay: Mitogen-induced stimulation of PBMC from women with unexplained habitual abortion, cytokine levels by ELISA; assay type: cell-based, human (women); conditions: for levels of IL-4 / levels of IL-6 / production of the Th1 cytokine IFN-gamma: PHA-stimulated PBMC from women with unexplained habitual abortion, 96 hours in culture, ELISA
From the text: The effects of dydrogesterone on Th1 and Th2 cytokine profiles produced by mitogen-stimulated peripheral blood mononuclear cells (=PBMC) were established. The effects of dydrogesterone on Th1 and Th2 cytokine production were investigated in peripheral blood lymphocytes from women with unexplained habitual abortion. The peripheral mononuclear cells were stimulated with mitogen (phytohaemagglutinin) in vitro, in the presence and absence of dydrogesterone. The levels of cytokines secreted were measured after 96 hours in culture. […] Several studies have pointed to a deviation of cytokine profiles in women when during pregnancy. Pregnancy is associated with a shift towards Th2 bias, evinced by changes in peripheral T cells, by cytokine production by peripheral lymphocytes and by cytokine changes at the maternal-fetal interface. Unexplained recurrent spontaneous abortion (URSA) seems to be associated with a stronger bias towards Th1 cytokines. Women who have earlier been gone through URSA may therefore be regarded as a pre-selected group of patients that will typically respond to an immunological stimulation by showing a Th1 dominated pattern of immune response. The pharmacological test was therefore performed with a suitable URSA group which comprised of women admitted with spontaneous abortion for evacuation, (i) who have had at least two previous unexplained miscarriages, (ii) who were currently undergoing at least a 3rd abortion and (iii) who had been fully investigated. The relationship between habitual abortion and cytokine production response in 54 women with normal pregnancy (and at least 3 previous normal pregnancies) and 23 women with a history of habitual abortion of unexplained aetiology (URSA group) has been investigated. Peripheral blood was obtained by venipuncture from the abortion group on the day of abortion. PBMC is separated by Ficoll-paque (Pharmacia Biotech, Sweden) density gradient centrifugation, suspended in RPMI medium (=“Roswell Park Memorial Institute”-medium; obtained from GIBCO/BRL, USA) containing 10% fetal calf serum, aliquoted into 96 well tissue culture plates at a density of 100.000 cells per well and then stimulated with the mitogen phytohemagglutinin (=PHA, Sigma Chemicals, USA) at a concentration of […] for a period of 96 hours, with autologous placental antigens or with trophoblast antigens. Progesterone, dydrogesterone (Duphaston®) and RU486 (=mifepristone) was added in different combinations as described below. Progesterone was tested at concentrations of […]. RU486 was tested at equivalent concentrations. Culture supernatants were harvested at 96 hours for determination of the levels of cytokines secreted by the PBMC into the supernatants. Cytokine levels were determined in the supernatants by enzyme-linked immunosorbent assay (=ELISA). Each sample was tested in the following manner: • PBMC+mitogen • PBMC+mitogen+progesterone • PBMC+mitogen+progesterone+RU486 • PBMC+mitogen+dydrogesterone • PBMC+mitogen+dydrogesterone+RU486 • PBMC+mitogen+Carrier • PBMC+mitogen+Carrier+RU486 Determination of cytokine levels by ELISA: Th1 cytokines TNF-α and IFN-γ, and Th2 cytokines IL-4, IL-6 and IL-10 were evaluated in these samples by ELISA using kits that were obtained from Immunotech SA, France. These consisted of “sandwich ELISA”. Briefly, the first step leads to the capture of the relevant cytokine by monoclonal anti-cytokine antibodies bound to the wells of microtiter plates. In the second step, a second biotinylated monoclonal is added together with streptavidin-enzyme (peroxidase or alkaline phosphatase) conjugate. The biotinylated antibody binds to the solid phase antibody-antigen complex, and in turn, binds the conjugate. After incubation the wells are washed and the binding of the streptavidin-enzyme via biotin is followed by the addition of a chromogenic substrate. The intensity of the coloration produced is proportional to the concentration of the cytokine in the sample. […]

[5] = tested on: Th1 cytokine production to trophoblast; conditions: women with recurrent pregnancy loss; Choi et al., Human Reproduction 15/1 (2000); cited from earlier work
[6] = ex-vivo, women with spontaneous abortion and habitual abortion

Structure (SMILES) | selectivity as progesterone receptor agonist [1] | Th1/Th2 cytokine production ([2]; murine stress-induced abortion model) | level of IL-4 ([2]; pregnant mice exposed to ultrasound on day 5 of gestation) | abortion rate ([2]; pregnant mice exposed to ultrasound on day 5 of gestation, stress raised rate from around 12% to 44%, dose-related) | androgenic effects in the mother (hirsutism, voice changes, acne) [3] | masculinizing effect on the female fetus [3] | levels of IL-4 [4] | levels of IL-6 [4] | production of the Th1 cytokine IFN-gamma [4] | levels of IL-4 ([4]; listed as Dydrogesterone) | levels of IL-6 ([4]; listed as Dydrogesterone) | production of the Th1 cytokine IFN-gamma ([4]; listed as Dydrogesterone) | Th1/Th2 bias [4, 6] | activity of lymphocytes [4, 6] | release of progesterone induced blocking factor (PIBF) [4, 6] | in-vitro embryotoxic Th1 cytokine production to trophoblast [5]
CC(=O)[C@H]1CC[C@H]2[C@@H]3C=CC4=CC(=O)CC[C@@]4(C)[C@@H]3CC[C@]12C [dydrogesterone] | highly selective progesterone receptor agonist | shift from Th1 to Th2-cytokine production | increased level | ≥ 5% | no androgenic effects | no masculinizing effect | marked increase | marked increase | reduction | increased | increased | strongly suppressed | shift from a Th1 towards a Th2 bias | reduced the activity of lymphocytes | increased release | 
CC(=O)[C@H]1CC[C@H]2[C@@H]3CCC4=CC(=O)CC[C@]4(C)[C@H]3CC[C@]12C [progesterone] |  |  |  |  |  |  |  |  |  |  |  |  |  |  |  | inhibits
